Measured values published in the supplement of paper PMC12463676, “Small-molecule dissolution of stress granules by redox modulation benefits ALS models” (Nature Chemical Biology, 2025).

Columns and labels:
lipoamide = compound: NC(=O)CCCCC1CCSS1 [lipoamide]; experiment: thermal stability z-score vs DMSO; higher = more thermally stabilized by treatment; conditions: HeLa, lipoamide concentration 100 µM
Method: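 Cellular thermal proteome profiling in HeLa cells. Cells were treated with 100 µM lipoamide for 1 h, with or without 1 mM arsenate for a further 1 h, then heated to ten temperatures (37-66.3 °C), and soluble protein was quantified by TMT mass spectrometry relative to 0.1% DMSO controls. The thermal stability score (sum of log2 fold changes minus the abundance score) was transformed to a z-score; mean of n = 3 experiments.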

potassium arsenate = compound: O=[As]([O-])(O)O.[K+] [potassium arsenate]; experiment: as above; conditions: HeLa; arsenate concentration 1 mM
Method: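 Cellular thermal proteome profiling in HeLa cells treated with 1 mM arsenate for 1 h (DMSO pretreatment), heated to ten temperatures (37-66.3 °C). Soluble protein was quantified by TMT mass spectrometry relative to DMSO controls; the thermal stability score was transformed to a z-score; mean of n = 3 experiments.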

[1] = arsenate co-treatment: 1 mM arsenate 1 h
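Note: each temperature applied for 3 min, abundance score taken as mean log2 fold change at the two lowest temperatures, z-score obtained by mean subtraction and division by SD.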

Chain of UniProt Q5M775 (Q5M775 whole entry): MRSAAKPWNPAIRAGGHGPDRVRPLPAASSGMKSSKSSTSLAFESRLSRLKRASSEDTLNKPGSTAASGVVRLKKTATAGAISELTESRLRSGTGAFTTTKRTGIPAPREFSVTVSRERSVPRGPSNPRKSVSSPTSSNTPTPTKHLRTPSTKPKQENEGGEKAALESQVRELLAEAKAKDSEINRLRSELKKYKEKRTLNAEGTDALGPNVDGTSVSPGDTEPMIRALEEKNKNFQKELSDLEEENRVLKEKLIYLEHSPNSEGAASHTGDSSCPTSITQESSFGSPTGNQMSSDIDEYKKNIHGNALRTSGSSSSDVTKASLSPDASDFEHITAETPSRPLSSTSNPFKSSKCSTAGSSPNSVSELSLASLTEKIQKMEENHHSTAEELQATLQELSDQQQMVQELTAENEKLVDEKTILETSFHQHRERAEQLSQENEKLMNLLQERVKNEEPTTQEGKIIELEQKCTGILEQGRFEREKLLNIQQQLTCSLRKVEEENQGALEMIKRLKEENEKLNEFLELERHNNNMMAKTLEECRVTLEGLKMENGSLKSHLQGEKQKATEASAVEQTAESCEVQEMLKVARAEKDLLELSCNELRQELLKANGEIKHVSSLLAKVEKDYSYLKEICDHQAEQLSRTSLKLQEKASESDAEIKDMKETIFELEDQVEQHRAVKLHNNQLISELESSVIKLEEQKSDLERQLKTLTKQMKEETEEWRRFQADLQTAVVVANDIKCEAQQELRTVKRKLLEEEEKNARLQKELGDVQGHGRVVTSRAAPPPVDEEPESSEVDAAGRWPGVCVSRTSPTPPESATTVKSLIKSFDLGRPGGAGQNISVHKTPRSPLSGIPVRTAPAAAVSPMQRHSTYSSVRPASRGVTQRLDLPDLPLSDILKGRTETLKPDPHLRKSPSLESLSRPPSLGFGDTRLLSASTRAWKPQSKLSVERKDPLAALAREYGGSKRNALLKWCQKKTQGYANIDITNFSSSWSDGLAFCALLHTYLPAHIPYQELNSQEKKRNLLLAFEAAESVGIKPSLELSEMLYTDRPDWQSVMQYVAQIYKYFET
Chain of UniProt P16615 (P16615 whole entry): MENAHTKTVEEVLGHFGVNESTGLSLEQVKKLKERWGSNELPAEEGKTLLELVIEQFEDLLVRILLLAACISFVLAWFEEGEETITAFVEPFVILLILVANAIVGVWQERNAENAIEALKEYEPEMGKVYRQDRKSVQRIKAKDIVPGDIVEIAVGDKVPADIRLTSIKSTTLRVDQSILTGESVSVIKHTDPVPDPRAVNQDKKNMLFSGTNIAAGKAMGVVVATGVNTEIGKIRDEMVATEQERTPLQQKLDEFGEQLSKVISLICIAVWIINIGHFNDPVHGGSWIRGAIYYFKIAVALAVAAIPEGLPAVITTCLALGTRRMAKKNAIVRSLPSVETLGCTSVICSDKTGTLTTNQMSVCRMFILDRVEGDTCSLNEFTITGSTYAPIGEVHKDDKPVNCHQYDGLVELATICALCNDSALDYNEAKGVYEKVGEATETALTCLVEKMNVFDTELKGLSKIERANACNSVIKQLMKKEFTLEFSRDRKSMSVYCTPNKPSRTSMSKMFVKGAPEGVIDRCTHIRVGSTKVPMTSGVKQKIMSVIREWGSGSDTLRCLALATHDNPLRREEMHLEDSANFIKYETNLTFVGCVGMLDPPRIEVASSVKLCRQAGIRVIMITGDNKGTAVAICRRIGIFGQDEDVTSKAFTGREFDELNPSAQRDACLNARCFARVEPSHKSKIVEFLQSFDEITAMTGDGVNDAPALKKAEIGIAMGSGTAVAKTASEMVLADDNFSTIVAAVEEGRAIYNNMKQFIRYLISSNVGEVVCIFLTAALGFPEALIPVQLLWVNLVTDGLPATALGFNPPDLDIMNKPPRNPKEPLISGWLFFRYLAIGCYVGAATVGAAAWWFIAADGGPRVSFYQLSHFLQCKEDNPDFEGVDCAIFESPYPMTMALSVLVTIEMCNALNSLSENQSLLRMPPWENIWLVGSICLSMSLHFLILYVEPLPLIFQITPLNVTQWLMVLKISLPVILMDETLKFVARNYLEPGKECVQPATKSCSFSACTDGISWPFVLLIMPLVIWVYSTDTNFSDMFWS
Chain of UniProt P14625 (P14625 whole entry): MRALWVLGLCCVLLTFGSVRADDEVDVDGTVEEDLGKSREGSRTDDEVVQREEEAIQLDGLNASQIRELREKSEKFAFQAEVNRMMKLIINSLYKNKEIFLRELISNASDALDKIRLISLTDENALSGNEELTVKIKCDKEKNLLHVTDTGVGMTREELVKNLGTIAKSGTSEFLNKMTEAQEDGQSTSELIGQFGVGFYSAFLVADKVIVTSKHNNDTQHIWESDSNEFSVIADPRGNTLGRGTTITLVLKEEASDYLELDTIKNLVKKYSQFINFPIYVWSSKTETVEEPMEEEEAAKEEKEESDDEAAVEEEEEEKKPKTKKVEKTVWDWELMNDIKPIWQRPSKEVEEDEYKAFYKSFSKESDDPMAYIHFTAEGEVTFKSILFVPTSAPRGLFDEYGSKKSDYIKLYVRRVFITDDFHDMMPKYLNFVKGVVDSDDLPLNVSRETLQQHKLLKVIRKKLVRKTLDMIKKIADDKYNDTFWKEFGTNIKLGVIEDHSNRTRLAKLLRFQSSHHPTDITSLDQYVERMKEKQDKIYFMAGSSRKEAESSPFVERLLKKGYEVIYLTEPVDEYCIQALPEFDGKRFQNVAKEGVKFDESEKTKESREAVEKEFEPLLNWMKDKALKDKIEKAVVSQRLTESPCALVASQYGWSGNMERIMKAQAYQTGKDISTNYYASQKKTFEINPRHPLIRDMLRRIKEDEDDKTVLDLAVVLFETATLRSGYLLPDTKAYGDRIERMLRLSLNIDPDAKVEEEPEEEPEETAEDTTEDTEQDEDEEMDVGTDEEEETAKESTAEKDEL
Chain of UniProt Q6ZSJ8 (Q6ZSJ8 whole entry): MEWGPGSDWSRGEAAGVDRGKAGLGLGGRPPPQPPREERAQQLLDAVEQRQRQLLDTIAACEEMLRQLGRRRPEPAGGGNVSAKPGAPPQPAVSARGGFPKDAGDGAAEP
Chain of UniProt P49419 (P49419 whole entry): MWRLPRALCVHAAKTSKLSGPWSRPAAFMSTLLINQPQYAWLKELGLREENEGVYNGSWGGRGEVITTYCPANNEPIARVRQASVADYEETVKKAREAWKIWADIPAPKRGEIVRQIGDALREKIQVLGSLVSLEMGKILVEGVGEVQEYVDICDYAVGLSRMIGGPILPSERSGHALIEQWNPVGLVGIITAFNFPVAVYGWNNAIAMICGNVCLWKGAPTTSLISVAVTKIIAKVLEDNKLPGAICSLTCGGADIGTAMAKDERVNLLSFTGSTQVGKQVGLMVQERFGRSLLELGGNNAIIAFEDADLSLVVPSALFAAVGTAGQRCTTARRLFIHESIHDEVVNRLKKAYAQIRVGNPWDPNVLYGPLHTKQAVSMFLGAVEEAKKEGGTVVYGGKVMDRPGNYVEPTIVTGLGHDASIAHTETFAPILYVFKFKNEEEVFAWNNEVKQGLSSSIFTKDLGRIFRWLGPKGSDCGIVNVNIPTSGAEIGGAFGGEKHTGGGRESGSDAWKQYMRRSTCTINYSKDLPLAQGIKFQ
Chain of UniProt Q8WWW0 (Q8WWW0 whole entry): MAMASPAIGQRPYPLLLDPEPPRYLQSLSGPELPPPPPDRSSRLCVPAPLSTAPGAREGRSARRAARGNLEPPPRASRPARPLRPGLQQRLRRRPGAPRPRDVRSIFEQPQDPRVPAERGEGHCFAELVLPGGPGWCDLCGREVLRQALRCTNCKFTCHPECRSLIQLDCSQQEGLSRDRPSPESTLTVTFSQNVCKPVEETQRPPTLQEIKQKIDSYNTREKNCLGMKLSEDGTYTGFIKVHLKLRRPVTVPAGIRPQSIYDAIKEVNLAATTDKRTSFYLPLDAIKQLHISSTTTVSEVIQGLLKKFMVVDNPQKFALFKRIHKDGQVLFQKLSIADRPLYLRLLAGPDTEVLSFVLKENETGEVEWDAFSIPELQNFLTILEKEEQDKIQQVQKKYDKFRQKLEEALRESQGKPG
Chain of UniProt Q9NWU2 (Q9NWU2 whole entry): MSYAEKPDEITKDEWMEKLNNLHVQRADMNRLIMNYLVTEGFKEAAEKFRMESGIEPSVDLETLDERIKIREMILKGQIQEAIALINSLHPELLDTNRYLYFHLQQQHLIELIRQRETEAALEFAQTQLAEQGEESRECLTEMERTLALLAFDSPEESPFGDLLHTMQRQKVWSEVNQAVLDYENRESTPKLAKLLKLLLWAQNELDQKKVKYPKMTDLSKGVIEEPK
Chain of UniProt Q15907 (Q15907 whole entry): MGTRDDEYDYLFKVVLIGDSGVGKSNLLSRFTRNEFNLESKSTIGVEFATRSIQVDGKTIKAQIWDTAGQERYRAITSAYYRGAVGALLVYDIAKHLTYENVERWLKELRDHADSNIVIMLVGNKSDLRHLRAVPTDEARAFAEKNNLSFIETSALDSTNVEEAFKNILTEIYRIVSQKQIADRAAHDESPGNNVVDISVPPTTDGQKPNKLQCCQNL
Chain of UniProt O95822 (O95822 whole entry): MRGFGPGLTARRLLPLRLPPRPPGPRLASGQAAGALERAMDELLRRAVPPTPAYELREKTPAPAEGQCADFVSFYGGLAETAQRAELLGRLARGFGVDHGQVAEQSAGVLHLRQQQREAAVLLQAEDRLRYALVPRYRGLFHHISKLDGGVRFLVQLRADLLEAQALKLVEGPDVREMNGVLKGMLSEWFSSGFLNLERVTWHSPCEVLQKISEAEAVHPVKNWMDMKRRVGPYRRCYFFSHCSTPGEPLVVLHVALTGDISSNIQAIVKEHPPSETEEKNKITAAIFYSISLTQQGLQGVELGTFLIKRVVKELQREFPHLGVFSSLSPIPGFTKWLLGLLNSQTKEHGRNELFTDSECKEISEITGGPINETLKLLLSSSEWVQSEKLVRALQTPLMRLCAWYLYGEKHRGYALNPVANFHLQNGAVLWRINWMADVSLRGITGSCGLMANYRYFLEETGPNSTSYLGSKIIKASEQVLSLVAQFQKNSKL

Target	thermal stability z-score (lipoamide; [1])	thermal stability z-score (lipoamide; arsenate co-treatment: none)	thermal stability z-score (potassium arsenate)
RFC3 (UniProt P40938)	-0.548	-0.365	-0.0936
ALDH7A1 (UniProt P49419)	1.36	0.584	0.994
OTUD6B (UniProt Q8N6M0)	0.504	-0.85	0.0655
GMFB (UniProt P60983)	0.0996	0.368	-0.675
MLYCD (UniProt O95822)	0.771	0.713	0.837
MBD3 (UniProt O95983)	0.379	0.252	-0.483
NUCKS1 (UniProt Q9H1E3)	0.697	0.845	0.5
RASSF5 (UniProt Q8WWW0)	-0.444	-0.459	0.498
SYNE2 (UniProt Q8WXH0)	-0.0307	0.18	-0.123
ABCC1 (UniProt P33527)	0.473	0.0236	-0.579
GK (UniProt P32189)	0.371	0.195	0.46
PRPF19 (UniProt Q9UMS4)	1.23	0.686	-0.692
SQLE (UniProt Q14534)	0.647	1.27	0.26
AMBRA1 (UniProt Q9C0C7)	0.0433	0.0956	0.446
PTGFRN (UniProt Q9P2B2)	0.216	0.0155	0.0412
CUL4A (UniProt Q13619)	0.0347	-0.214	-0.0896
TPRA1 (UniProt Q86W33)	-0.68	-0.251	0.19
TUBGCP4 (UniProt Q9UGJ1)	-0.259	-0.815	0.141

Target	thermal stability z-score (lipoamide; [1])	thermal stability z-score (lipoamide; arsenate co-treatment: none)	thermal stability z-score (potassium arsenate)
HSPBP1 (UniProt Q9NZL4)	-0.134	-0.197	0.872
GID8 (UniProt Q9NWU2)	0.00199	0.0715	-0.0145
RUSC1 (UniProt Q9BVN2)	0.0753	0.00504	-0.0614
ARFGAP2 (UniProt Q8N6H7)	-0.346	-0.143	0.0541
HSP90B1 (UniProt P14625)	-3.56	-2.61	0.54
CHCHD1 (UniProt Q96BP2)	0.43	0.138	-0.0935
GORAB (UniProt Q5T7V8)	0.521	0.173	0.527
INPP5J (UniProt Q15735)	-0.307	-0.456	-0.471
RAD51B (UniProt O15315)	0.231	0.428	0.578
SPECC1 (UniProt Q5M775)	0.0376	0.504	1.48
DNAJC13 (UniProt O75165)	-0.118	-0.226	0.201
C1ORF122 (UniProt Q6ZSJ8)	1.07	1.18	0.28
TBL2 (UniProt Q9Y4P3)	-0.257	0.0669	0.366
MAN1A1 (UniProt P33908)	0.547	0.362	0.104
RAB11B (UniProt Q15907)	-0.384	-1.01	-0.384
ATP2A2 (UniProt P16615)	-1.16	-0.667	-0.0158
FANCG (UniProt O15287)	-0.348	-0.437	-0.507
